From patent publication US6822097B1, “Compounds and methods of uses” (Amgen, Inc., priority 2002, dated 2004)
Counter-ions that a name gives are not always drawn.

Structure (SMILES)	melting point
O=C(Nc1nc(-c2cc3ccccc3[nH]c2=O)cs1)c1ccccc1 (as salt: HCl) [Example 71, N-[4-(2-Oxo(3-hydroquinolyl))(1,3-thiazol-2-yl)]benzamide]	309 to 311 °C (dec.)
Nc1nc(-c2cc3ccccc3[nH]c2=O)cs1 (as salt: hydrobromid) [Example 66, 3-(2-Amino-1,3-thiazol-4-yl)hydroquinolin-2-one]	> 300 °C
O=c1[nH]c2ccccc2cc1-c1csc(Nc2ccccn2)n1 (as salt: hydrobromid) [Example 67, 3-[2-(2-pyridylamino)-1,3-thiazol-4-yl]hydroquinolin-2-one]	307 to 312 °C (dec.)
O=c1[nH]c2ccccc2cc1-c1csc(Nc2cccnc2)n1 (as salt: hydrobromid) [Example 68, 3-[2-(3-Pyridylamino)-1,3-thiazol-4-yl]hydroquinolin-2-one]	> 300 °C
O=c1[nH]c2ccccc2cc1-c1csc(Nc2ccncc2)n1 (as salt: hydrobromid) [Example 69, 3-[2-(4-Pyridylamino)-1,3-thiazol-4-yl]hydroquinolin-2-one]	> 300 °C
CNc1nc(-c2cc3ccccc3[nH]c2=O)cs1 (as salt: hydrobromid) [Example 75, 3-[2-(Methylamino)-1,3-thiazol-4-yl]hydroquinolin-2-one hydrobromide]	292 to 293 °C
O=c1[nH]c2ccccc2cc1-c1csc(NCc2ccco2)n1 (as salt: hydrobromid) [Example 79, 3-{2-[(2-Furylmethyl)amino]-1,3-thiazol-4-yl}hydroquinolin-2-one hydrobromide]	221 to 224 °C (dec.)
O=c1[nH]c2ccccc2cc1-c1csc(NCCN2CCOCC2)n1 (as salt: hydrobromid) [Example 80, 3-{2-[(2-Morpholin-4-ylethyl)amino]-1,3-thiazol-4-yl}hydroquinolin-2-one hydrobromide]	237 to 239 °C
Nc1c(-c2csc(-c3ccncc3)n2)c(=O)[nH]c2ccccc12 (as salt: salt) [Example 6, 3-[2-(4-Pyridyl)-4-thiazolyl]-4-amino-2(1H)-quinolinone]	> 250 °C
O=c1[nH]c2ccccc2cc1-c1nc(-c2ccncc2)cs1 (as salt: salt) [Example 111, 3-(4-Pyridin-4-yl-thiazol-2-yl)-1H-quinolin-2-one]	> 300 °C
O=c1[nH]c2ccccc2cc1-c1csc(-c2ccncc2)n1 [Example 1, 3-[2-(4-Pyridyl)-4-thiazolyl]-2(1H)-quinolinone]	241 to 243 °C
O=c1[nH]c2ccccc2cc1-c1csc(-c2cccnc2)n1 [Example 2, 3-[2-(3-Pyridyl)-4-thiazolyl]-2(1H)-quinolinone]	230 to 232 °C
Cc1c(-c2csc(-c3ccncc3)n2)c(=O)[nH]c2ccccc12 [Example 3, 3-[2-(4-Pyridyl)-4-thiazolyl]-4-methyl-2(1H)-quinolinone]	> 250 °C
O=c1[nH]c2ccccc2c(-c2ccccc2)c1-c1csc(-c2ccncc2)n1 [Example 4, 3-[2-(4-Pyridyl)-4-thiazolyl]-4-phenyl-2(1H)-quinolinone]	> 250 °C
O=c1[nH]c2ccccc2c(O)c1-c1csc(-c2ccncc2)n1 [Example 5, 3-[2-(4-pyridyl)-4-thiazolyl]-4-hydroxy-2(1H)-quinolinone]	> 250 °C
Nc1c(-c2csc(-c3ccncc3)n2)c(=O)[nH]c2ccc(N3CCCCC3)cc12 [Example 7, 3-[2-(4-Pyridyl)-4-thiazolyl]-4-amino-6-(1-piperidinyl)-2(1H) -quinolinone]	199 to 202 °C
COC(=O)c1cccc2[nH]c(=O)c(-c3csc(-c4ccncc4)n3)cc12 [Example 8, 1,2-Dihydro-2-oxo-3-[2-(4-pyridyl)-4-thiazolyl]-5-quinolinecarboxylic acid methyl ester]	> 250 °C
O=c1[nH]c2cc3c(cc2cc1-c1csc(-c2cccnc2)n1)OCO3 [Example 9, 3-[2-(3-Pyridyl)-4-thiazolyl]-6,7-(methylenedioxyl)-2(1H)-quinolinone]	> 220 °C
O=C(O)c1cccc2[nH]c(=O)c(-c3csc(-c4ccncc4)n3)cc12 [Example 10, 1,2-Dihydro-2-oxo-3-[2-(4-pyridyl)-4-thiazolyl]-5-quinolinecarboxylic acid]	> 250 °C
CCN(CC)C(=O)c1cccc2[nH]c(=O)c(-c3csc(-c4ccncc4)n3)cc12 [Example 11, N,N-Diethyl-1,2-dihydro-2-oxo-3-[2-(4-pyridyl)-4-thiazolyl]-5-quinolinecarboxamide]	210 °C (dec.)
O=c1[nH]c2cc3c(cc2cc1-c1csc(-c2ccncc2)n1)OCO3 [Example 18, 7-(2-(4-Pyridinyl)-1,3-thiazol-4-yl)[1,3]dioxolo[4,5-g]quinolin-6(5H)-one]	167 to 169 °C
COc1cc2[nH]c(=O)c(-c3csc(-c4ccncc4)n3)c(N)c2cc1OC [Example 19, 3-[2-(4-pyridyl)-4-thiazolyl]-4-amino-6,7-dimethoxy-2(1H)-quinolinone]	> 250 °C

Structure (SMILES)	melting point
COc1cc2[nH]c(=O)c(-c3csc(-c4cccnc4)n3)c(N)c2cc1OC [Example 20, 3-[2-(3-Pyridyl)-4-thiazolyl]-4-amino-6,7-dimethoxy-2(1H)-quinolinone]	> 250 °C
Nc1c(-c2csc(-c3ccncc3)n2)c(=O)[nH]c2ccc(Cl)cc12 [Example 21, 3-[2-(4-Pyridyl)-4-thiazolyl]-4-amino-6-chloro-2(1H)-quinolinone]	> 220 °C
CN1CCN(c2ccc3[nH]c(=O)c(-c4csc(-c5ccncc5)n4)c(N)c3c2)CC1 [Example 22, 3-[2-(4-Pyridyl)-4-thiazolyl]-4-amino-6-(4-methyl-1-piperazinyl)-2(1H)-quinolinone]	> 220 °C
Nc1nc(-c2c(-c3ccccc3)c3ccccc3[nH]c2=O)cs1 [Example 23, 3-(2-Amino-4-thiazolyl)-4-phenyl-2(1H)-quinolinone]	> 220 °C
O=c1[nH]c2ccccc2cc1-c1csc(NS(=O)(=O)c2ccccc2)n1 [Example 70, 3-{2-[(Phenylsulfonyl)amino]-1,3-thiazol-4-yl}hydroquinolin-2-one]	> 300 °C
O=C(Cc1ccccc1)Nc1nc(-c2cc3ccccc3[nH]c2=O)cs1 [Example 72, N-[4-(2-Oxo(3-hydroquinolyl))(1,3-thiazol-2-yl)]-2-phenylacetamide]	272 to 278 °C
COc1ccc(CC(=O)Nc2nc(-c3cc4ccccc4[nH]c3=O)cs2)c(OC)c1 [Example 73, 2-(2,4-Dimethoxyphenyl)-N-[4-(2-oxo(3-hydroquinolyl))(1,3-thiazol-2-yl)]acetamide]	295 to 300 °C (dec.)
O=c1[nH]c2ccccc2cc1-c1csc(NS(=O)(=O)c2ccc(OC(F)(F)F)cc2)n1 [Example 74, 3-[2-({[4-(Trifluoromethoxy)phenyl]sulfonyl}amino)-1,3-thiazol-4-yl]hydroquinolin-2-one]	> 300 °C
CN(C(=O)c1ccccc1)c1nc(-c2cc3ccccc3[nH]c2=O)cs1 [Example 76, N-Methyl-N-[4-(2-oxo(3-hydroquinolyl))(1,3-thiazol-2-yl)]benzamide]	> 300 °C
O=c1[nH]c2ccccc2cc1-c1csc(Nc2ccccc2F)n1 [Example 78, 3-{2-[(2-Fluorophenyl)amino]-1,3-thiazol-4-yl}hydroquinolin-2-one]	277 to 278 °C (dec.)
CS(=O)(=O)c1ccc(-c2csc(-c3cc4ccccc4[nH]c3=O)n2)cc1 [Example 112, 3-{4-[4-(Methylsulfonyl)phenyl]-1,3-thiazol-2-yl}hydroquinolin-2-one]	> 300 °C
N#Cc1ccc(-c2csc(-c3cc4ccccc4[nH]c3=O)n2)cc1 [Example 113, 4-[2-(2-Oxo-3-hydroquinolyl)-1,3-thiazol-4-yl]benzenecarbonitrile]	> 300 °C
O=c1[nH]c2ccccc2cc1-c1nc(-c2cccc([N+](=O)[O-])c2)cs1 [Example 114, 3-[4-(3-Nitrophenyl)-1,3-thiazol-2-yl]hydroquinolin-2-one]	> 300 °C
COc1cccc(-c2csc(-c3cc4ccccc4[nH]c3=O)n2)c1 [Example 115, 3-[4-(3-Methoxyphenyl)-1,3-thiazol-2-yl]hydroquinolin-2-one]	279 to 282 °C
Cc1onc(-c2ccccc2)c1-c1csc(-c2cc3ccccc3[nH]c2=O)n1 [Example 116, 3-[4-(5-Methyl-3-phenylisoxazol-4-yl)-1,3-thiazol-2-yl]hydroquinolin-2-one]	242 to 244 °C
O=c1[nH]c2ccccc2cc1-c1csc(N(Cc2ccccc2)S(=O)(=O)c2ccccc2)n1 [Example 8728, N-Benzyl-N-[4-(2-oxo-1,2-dihydro-quinolin-3-yl)-thiazol-2-yl]-benzenesulfonamide]	228 to 232 °C
C=CCN(c1nc(-c2cc3ccccc3[nH]c2=O)cs1)S(=O)(=O)c1ccccc1 [Example 8729, N-Allyl-N-[4-(2-oxo-1,2-dihydro-quinolin-3-yl)-thiazol-2-yl]-benzenesulfonamide]	214 to 216 °C
CN(c1nc(-c2cc3ccccc3[nH]c2=O)cs1)S(=O)(=O)c1ccc(Br)cc1 [Example 8730, 4-Bromo-N-methyl-N-[4-(2-oxo-1,2-dihydro-quinolin-3-yl)-thiazol-2-yl]-benzenesulfonamide]	280 to 282 °C
CN(c1nc(-c2cc3ccccc3[nH]c2=O)cs1)S(=O)(=O)c1cccc(F)c1 [Example 8731, 3-Fluoro-N-methyl-N-[4-(2-oxo-1,2-dihydro-quinolin-3-yl)-thiazol-2-yl]-benzenesulfonamide]	247 to 249 °C
CN(c1nc(-c2cc3ccccc3[nH]c2=O)cs1)S(=O)(=O)c1cn(C)cn1 [Example 8732, N,1-Dimethyl-N-(4-(2-oxo-1,2-dihydro-3-quinolinyl)-1,3-thiazol-2-yl)-1H-imidazole-4-sulfonamide]	> 300 °C
COC(=O)c1ccc2cc(-c3csc(N(C)S(=O)(=O)c4ccccc4)n3)c(=O)[nH]c2c1 [Example 8763]	> 300 °C
